In patent US20220143081A1, “SYSTEM AND METHOD OF TREATING INFLAMMATORY LUNG DISEASES” (priority 2020, published 2022):

Key:
SARS-CoV-2 [1] = type: cell-based
SARS-CoV-2 [2] = type: cell-based; settings: commercially available nasal spray tested at 5-fold dilution
[3] = tested on: monocytes, macrophages and lymphocytes; assay: In vitro experiments in monocytes, macrophages and lymphocytes; type: cell-based
HIV = type: cell-based; settings: in vitro
[4] = Human wound healing model (skin blister); type: in vivo
[5] = Blood cell effects in rats, including total body X-irradiation; type: in vivo
[6] = tested on: radiation-induced, chemical-induced and metastatic malignant and benign tumors; assay: Antitumor effects against induced and metastatic tumors; type: in vivo
[7] = Humoral and cellular immunity (Jerne plaque and footpad swelling tests); type: in vivo
[8] = tested on: PBMCs isolated from normal donors; assay: Gene expression in PBMCs by quantitative RT-PCR (Light Cycler System); type: cell-based, human

tetrachlorodecaoxide [TCDO]
cytopathic effect and SARS-CoV-2 infection of Vero E6 cells (SARS-CoV-2 [1]): significantly reduced
inhibition of viral propagation (SARS-CoV-2 [2]): highly potent
antigen presentation [3]: decrease antigen presentation
macrophage tumor necrosis factor (TNF) expression [3]: decrease macrophage tumor necrosis factor (TNF) expression
macrophage-fibroblast cooperation [3]: enhance macrophage-fibroblast cooperation
oxidative burst in monocytes [3]: stimulate an oxidative burst in monocytes
phagocytosis [3]: increase phagocytosis
anti-HIV properties (HIV): displayed anti-HIV properties
number of macrophages infiltrating the skin blister [4]: increased the number of macrophages infiltrating the skin blister
proportion of granulocytes, PBMCs and LGLs [5]: increased the proportion of granulocytes, peripheral blood monocytes (PBMCs) and large granular lymphocytes (LGLs)
erythropoiesis ([5]; after total body X-irradiation): stimulated erythropoiesis
direct antitumor effects [6]: displayed direct antitumor effects
humoral and cellular immune responses ([7]; Jerne plaque and footpad swelling tests): increased both the humoral and cellular immune responses
proportions of T-helper and T-suppressor/cytotoxic cells ([7]; spleen and thymus): altered proportions of T-helper and T-suppressor/cytotoxic cells
CD14 cell (macrophage) inflammatory gene expression [8]: short-term upregulation
inducible gene expression related to macrophage dependent T-cell activation (IL-2, IL-4, IL-17) [8]: notable inhibition
